Ends that are not written are not given here.
Tests used:
[1] = as the pH drops from 7; cited from earlier work
[2] = Permeabilization of DPPC liposomes containing glucose oxidase (glucose oxidase/HRP colour reaction, scanned image); format: biochemical; details: for Relative glucose oxidase activity (integrated digital values): DPPC; for Color apparent in the well: 30 minutes at room temperature
Procedure: (§1) The formation of a pore allows glucose into the liposome where it reacts with glucose oxidase to generate hydrogen peroxide. The hydrogen peroxide reacts with HRP, 4-AAP and TOOS (all outside the liposome) to generate an intense purple color.
(§2) The ability of the phosphorylated phylloxin to open liposomes in the presence of phosphatase was tested by preparing a developing solution of 0.5 mg/mL TOOS (3-(N-Ethyl-3-methylanilino)-2-hydroxypropanesulfonic acid sodium salt) (Sigma-Aldrich, St. Louis, Mo.), 1.0 mg/mL 4-AAP (4-amino-antipyrene) (Sigma-Aldrich), 12.5 mg/mL glucose and 0.0001 mg/mL HRP (horseradish peroxidase) (Pierce Biotechnology, Rockford, Ill.) in 50 mM TES.
(§3) 200 μL of this solution was placed in one well of 96-well plate containing 10 μL (0.004 mg/mL) of a DPPC liposome suspension. A second well was prepared similarly and 10 μL (0.3 mg/mL) of phylloxin solution in TES was also added. A third well was prepared similar to the second well. Alkaline phosphatase (10 μL at 2.5 mg/mL in TES) was added to the third well to a final concentration of 0.11 mg/mL. A similar set of wells was prepared with DOPC/cholesterol liposomes at the same concentration.
(§4) A weaker color was apparent in the well with DPPC liposomes, phylloxin and phosphatase, and weaker again in the well with DPPC liposomes and phylloxin. The remaining wells were essentially colorless. The image was recorded on an HP scanner and analyzed using an AlphaImager (Alpha Innotech, San Leandro, Calif.). The integrated digital values at 30 minutes are shown in Table 1 below, and at two hours in Table 2.

[3] = Permeabilization of DOPC/cholesterol liposomes containing glucose oxidase (glucose oxidase/HRP colour reaction, scanned image); format: biochemical; details: for Relative glucose oxidase activity (integrated digital values): DOPC/Cholesterol
Procedure: as §1, §2, §3, §4

[4] = Permeabilization of DPPC liposomes containing glucose oxidase by phosphorylated dermatoxin (absorbance at 538 nm); format: biochemical; details: Positive Control
Procedure: DPPC liposomes containing 5 mg/mL glucose oxidase were prepared as described in Example 2. Glucose oxidase activity was measured in a coupled enzyme reaction with horseradish peroxidase as described in Example 2. The various solutions were quickly added to each of the wells of a microplate using a multichannel pipette and the reactions were started (at T=0 hours) with the addition to the wells of a solution containing glucose and 4-AAP.
The ability of the phosphorylated dermatoxin to open liposomes in the presence of phosphatase was tested by preparing a developing solution as described in Example 2. One hundred-fifty microliters of the developing solution was placed in each well of a 96-well microplate. To each column in the plate was added 20 μL of TES buffer containing one of the following concentrations of unpurified dermatoxin: 3.3 mg/mL, 3.3×10^−1 mg/mL, 3.3×10^−2 mg/mL, 3.3×10^−3 mg/mL, 3.3×10^−4 mg/mL, 3.3×10^−5 mg/mL, 3.3×10^−6 mg/mL, or 3.3×10^−7 mg/mL. Negative control wells contained TES buffer with no dermatoxin. Positive control wells buffer contained TES buffer with Triton X-100. Ten-microliter aliquots of the following concentrations of DPPC liposomes (containing 5 mg/mL glucose oxidase) were added to wells in duplicate rows: 0.1 mg lipid/mL, 0.02 mg lipid/mL, 0.004 mg lipid/mL, or plain buffer. To one of the duplicate rows was added 20 μL of 2.5 mg/mL alkaline phosphatase in TES. The other duplicate row received 20 μL of TES buffer. Thus the final dermatoxin concentration in the well varied from […], and the final lipid concentration in the well ranged from 0.005 mg lipid/mL to 2.0×10^−4 mg lipid/mL.
The absorbance was recorded at 538 nm on a SpectraMax M5 plate reader (Molecular Devices, Sunnyvale, Calif.) after two hours incubation at room temperature, and also after overnight incubation (approximately 18 hours). Since the absorbance of several wells was saturated, the overnight samples were diluted 1:10 with 50 mmol TES and the absorbance of the diluted samples was measured.

[5] = 2-hour incubation, liposome + peptide
[6] = 2-hour incubation, liposome + peptide + phosphatase
[7] = 30-minute incubation, liposome + peptide
[8] = 30-minute incubation, liposome + peptide + phosphatase

## GALA
[1]
  pH at which the cytolytic peptide becomes activated: about 5.0

## GWMSKIASGIGTFLSGMQQ (GWMSKIASGIGTFLSGMQQ-NH2; not fully specified (residues 4, 8, 12, 15, N-terminus); also: phosphorylated) [Tetraphosphorylated Phylloxin, fully phosphorylated phylloxin made by Fmoc synthesis on Rink amide resin, HPLC purified]
[2]; [5]
  Relative glucose oxidase activity (integrated digital values): 173670
[2]; [6]
  Relative glucose oxidase activity (integrated digital values): 217620
[2]; [7]
  Relative glucose oxidase activity (integrated digital values): 84996
[2]; [8]
  Relative glucose oxidase activity (integrated digital values): 97588
[2]; DPPC liposomes and phylloxin, no phosphatase
  Color apparent in the well: weaker again
[2]; DPPC liposomes, phylloxin and phosphatase
  Color apparent in the well: weaker color
[2]; DPPC liposomes, with versus without alkaline phosphatase
  Phosphatase-dependent opening of liposomes: still an effect, but it is not so pronounced
[3]; [5]
  Relative glucose oxidase activity (integrated digital values): 128550
[3]; [6]
  Relative glucose oxidase activity (integrated digital values): 299950
[3]; [7]
  Relative glucose oxidase activity (integrated digital values): 67680
[3]; [8]
  Relative glucose oxidase activity (integrated digital values): 184416
[3]; 30 minutes at room temperature, DOPC/cholesterol liposomes, phylloxin and phosphatase
  Color apparent in the well: dark purple color
[3]; DOPC/cholesterol liposomes, in the absence of alkaline phosphatase
  Opening of liposomes: little effect
[3]; DOPC/cholesterol liposomes, in the presence of alkaline phosphatase
  Opening of liposomes: rapidly opens liposomes

## Triton X-100 [Positive Control, reference compound]
[4]; 2 hrs, lipid conc. 0, with phosphatase
  Absorbance at 538 nm (cytolytic peptide activity): 2.272 absorbance units
[4]; 2 hrs, lipid conc. 0, without phosphatase
  Absorbance at 538 nm (cytolytic peptide activity): 0.123 absorbance units
[4]; 2 hrs, lipid conc. 0.004, with phosphatase
  Absorbance at 538 nm (cytolytic peptide activity): 0.132 absorbance units
[4]; 2 hrs, lipid conc. 0.004, without phosphatase
  Absorbance at 538 nm (cytolytic peptide activity): 0.210 absorbance units
[4]; 2 hrs, lipid conc. 0.02, with phosphatase
  Absorbance at 538 nm (cytolytic peptide activity): 0.296 absorbance units
[4]; 2 hrs, lipid conc. 0.02, without phosphatase
  Absorbance at 538 nm (cytolytic peptide activity): 0.602 absorbance units
[4]; 2 hrs, lipid conc. 0.1, with phosphatase
  Absorbance at 538 nm (cytolytic peptide activity): 0.557 absorbance units
[4]; 2 hrs, lipid conc. 0.1, without phosphatase
  Absorbance at 538 nm (cytolytic peptide activity): 2.220 absorbance units
[4]; 18 hrs (d), 1:10-diluted sample, lipid conc. 0, with phosphatase
  Absorbance at 538 nm (cytolytic peptide activity): 1.064 absorbance units
[4]; 18 hrs (d), 1:10-diluted sample, lipid conc. 0, without phosphatase
  Absorbance at 538 nm (cytolytic peptide activity): 0.055 absorbance units
[4]; 18 hrs (d), 1:10-diluted sample, lipid conc. 0.004, with phosphatase
  Absorbance at 538 nm (cytolytic peptide activity): 0.056 absorbance units
[4]; 18 hrs (d), 1:10-diluted sample, lipid conc. 0.004, without phosphatase
  Absorbance at 538 nm (cytolytic peptide activity): 0.097 absorbance units
[4]; 18 hrs (d), 1:10-diluted sample, lipid conc. 0.02, with phosphatase
  Absorbance at 538 nm (cytolytic peptide activity): 0.094 absorbance units
[4]; 18 hrs (d), 1:10-diluted sample, lipid conc. 0.02, without phosphatase
  Absorbance at 538 nm (cytolytic peptide activity): 0.274 absorbance units
[4]; 18 hrs (d), 1:10-diluted sample, lipid conc. 0.1, with phosphatase
  Absorbance at 538 nm (cytolytic peptide activity): 0.252 absorbance units
[4]; 18 hrs (d), 1:10-diluted sample, lipid conc. 0.1, without phosphatase
  Absorbance at 538 nm (cytolytic peptide activity): 1.018 absorbance units
[4]; 18 hrs, lipid conc. 0, with phosphatase
  Absorbance at 538 nm (cytolytic peptide activity): 4.000 absorbance units
[4]; 18 hrs, lipid conc. 0, without phosphatase
  Absorbance at 538 nm (cytolytic peptide activity): 0.158 absorbance units
[4]; 18 hrs, lipid conc. 0.004, with phosphatase
  Absorbance at 538 nm (cytolytic peptide activity): 0.158 absorbance units
[4]; 18 hrs, lipid conc. 0.004, without phosphatase
  Absorbance at 538 nm (cytolytic peptide activity): 0.524 absorbance units
[4]; 18 hrs, lipid conc. 0.02, with phosphatase
  Absorbance at 538 nm (cytolytic peptide activity): 0.524 absorbance units
[4]; 18 hrs, lipid conc. 0.02, without phosphatase
  Absorbance at 538 nm (cytolytic peptide activity): 2.043 absorbance units
[4]; 18 hrs, lipid conc. 0.1, with phosphatase
  Absorbance at 538 nm (cytolytic peptide activity): 2.043 absorbance units

Reference: patent US8936916B2, “Polypeptides for microbial detection” (3M Innovative Properties Company, priority 2008, dated 2015)
